For assay [1], the target named is T1, Prostaglandin G/H synthase 1 (Ovis aries, UniProt P05979).
T1 sequence (P05979 whole entry): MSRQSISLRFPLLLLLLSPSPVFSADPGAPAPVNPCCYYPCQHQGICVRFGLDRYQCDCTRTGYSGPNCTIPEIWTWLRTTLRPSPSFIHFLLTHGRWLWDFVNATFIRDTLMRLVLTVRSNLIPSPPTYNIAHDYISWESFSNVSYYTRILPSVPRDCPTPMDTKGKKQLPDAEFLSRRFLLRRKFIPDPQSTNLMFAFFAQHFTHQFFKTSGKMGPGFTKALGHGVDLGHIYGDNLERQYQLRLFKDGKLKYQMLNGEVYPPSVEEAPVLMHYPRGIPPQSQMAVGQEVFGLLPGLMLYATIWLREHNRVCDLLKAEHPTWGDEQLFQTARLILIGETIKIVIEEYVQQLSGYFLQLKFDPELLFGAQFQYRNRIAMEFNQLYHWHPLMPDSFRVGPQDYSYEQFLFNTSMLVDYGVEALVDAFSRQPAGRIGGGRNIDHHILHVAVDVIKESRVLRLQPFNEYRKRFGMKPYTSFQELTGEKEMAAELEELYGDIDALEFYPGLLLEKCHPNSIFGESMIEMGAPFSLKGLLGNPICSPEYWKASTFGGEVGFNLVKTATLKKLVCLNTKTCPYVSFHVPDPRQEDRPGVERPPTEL
Kind of assay: Inhibition of ovine COX1 pre-incubated for 15 mins followed by addition of heme and fluorometric substrate and further incubated for 15 mins in presence of arachidonic acid by fluorescence based assay.

Assay [2] has as its target T2, Prostaglandin G/H synthase 2 (Homo sapiens, UniProt P35354).
T2 sequence (P35354 whole entry): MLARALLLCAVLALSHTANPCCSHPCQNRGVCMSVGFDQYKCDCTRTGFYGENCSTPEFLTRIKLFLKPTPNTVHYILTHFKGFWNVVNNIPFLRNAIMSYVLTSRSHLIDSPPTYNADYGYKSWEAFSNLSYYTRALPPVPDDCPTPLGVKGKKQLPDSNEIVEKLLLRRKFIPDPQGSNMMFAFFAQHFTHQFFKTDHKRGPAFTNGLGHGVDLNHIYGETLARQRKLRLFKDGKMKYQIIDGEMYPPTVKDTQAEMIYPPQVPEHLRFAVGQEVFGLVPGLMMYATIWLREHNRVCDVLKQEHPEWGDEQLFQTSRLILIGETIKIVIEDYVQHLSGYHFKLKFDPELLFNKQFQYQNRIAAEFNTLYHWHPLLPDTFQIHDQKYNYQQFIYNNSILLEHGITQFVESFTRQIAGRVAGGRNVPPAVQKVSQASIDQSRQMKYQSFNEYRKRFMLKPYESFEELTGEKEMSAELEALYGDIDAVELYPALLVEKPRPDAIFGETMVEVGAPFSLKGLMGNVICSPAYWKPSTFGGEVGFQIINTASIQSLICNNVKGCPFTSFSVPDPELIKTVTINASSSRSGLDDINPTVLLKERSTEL
Nature of the assay: Inhibition of human recombinant COX2 pre-incubated for 15 mins followed by addition of heme and fluorometric substrate and further incubated for 15 mins in presence of arachidonic acid by fluorescence based assay.

In ChEMBL document CHEMBL3425477, “Compounds from the insect Blaps japanensis with COX-1 and COX-2 inhibitory activities” (Bioorg Med Chem Lett, 2015) one finds IC50 data, which are given here for 13 molecules.

Broadly, the IC50 is the point on the concentration scale where inhibition reaches its midpoint. Regarding `CCO[C@@]1(c2ccc(O)c(O)c2)Oc2ccc(CCO)cc2O[C@@H]1O`, the results for the IC50 result in assay [1] and in assay [2] were “Not Active” and 2.52 µM, respectively.

On to `CCO[C@]1(c2ccc(O)c(O)c2)Oc2cc(CCO)ccc2O[C@H]1O`, for which the IC50 result was “Not Active” in assay [1] and 8.6 µM in assay [2].

Turning to `CC(=O)/N=C/Cc1ccc2c(c1)O[C@H](c1ccc(O)c(O)c1)[C@@H](NC(C)=O)O2` (relative stereo), the IC50 was determined as 13.8 µM in assay [1] (read-out: IC50) and 2.7 µM in assay [2].

With `CC(=O)NCCc1ccc2c(c1)O[C@H](NC(C)=O)[C@@H](c1ccc(O)c(O)c1)O2`, the IC50 result was “Not Active” in assay [1] and 2.6 µM in assay [2].

Regarding `CC(=O)N[C@H]1Oc2cc(CCO)ccc2O[C@@H]1c1ccc(O)c(O)c1` (relative stereo), the results for the IC50 result in assay [1] and in assay [2] were “Not Active” and 1.3 µM, respectively.

Consider `CO[C@@]1(c2ccc(O)c(O)c2)Oc2cc(CCO)ccc2O[C@@H]1O`, for which the IC50 result in assay [1] was “Not Active”; in assay [2], 17.8 µM.

As to `CO[C@@]1(c2ccc(O)c(O)c2)Oc2ccc(CCO)cc2O[C@@H]1O`, the IC50 result is “Not Active” in assay [1] and 8.24 µM in assay [2].

Turning to `CO[C@]1(c2ccc(O)c(O)c2)Oc2ccc(CCO)cc2O[C@H]1O`, the IC50 entry in assay [1] was “Not Active”; in assay [2] it was 6.02 µM.

For the molecule `CCO[C@@]1(c2ccc(O)c(O)c2)Oc2cc(CCO)ccc2O[C@@H]1O`, the IC50 result in assay [1] is “Not Active”; in assay [2], 13.7 µM.

Turning to `CC(=O)NCCc1ccc2c(c1)O[C@H](c1ccc(O)c(O)c1)[C@@H](NC(C)=O)O2` (relative stereo), the IC50 entry in assay [1] was “Not Active”; in assay [2], 3.6 µM.

Regarding `CCOC1(c2ccc(O)c(O)c2)Oc2ccc(CCO)cc2OC1O` (stereo unspecified), the IC50 entry was “Not Active” in assay [1] and 6.04 µM in assay [2].

Regarding `CO[C@]1(c2ccc(O)c(O)c2)Oc2cc(CCO)ccc2O[C@H]1O`, the IC50 result was “Not Active” in assay [1] and 9.7 µM in assay [2].

On to `CC(=O)N[C@H]1Oc2ccc(CCO)cc2O[C@@H]1c1ccc(O)c(O)c1` (relative stereo), for which the figures for the IC50 entry in assay [1] and in assay [2] were “Not Active” and 2.5 µM, respectively.
